The target in one assay is T1, ULK1-nanoluc (Homo sapiens, UniProt O75385).
T1 construct: host or cells: H2030 cells (ATCC)
T1 sequence (O75385 1-1050): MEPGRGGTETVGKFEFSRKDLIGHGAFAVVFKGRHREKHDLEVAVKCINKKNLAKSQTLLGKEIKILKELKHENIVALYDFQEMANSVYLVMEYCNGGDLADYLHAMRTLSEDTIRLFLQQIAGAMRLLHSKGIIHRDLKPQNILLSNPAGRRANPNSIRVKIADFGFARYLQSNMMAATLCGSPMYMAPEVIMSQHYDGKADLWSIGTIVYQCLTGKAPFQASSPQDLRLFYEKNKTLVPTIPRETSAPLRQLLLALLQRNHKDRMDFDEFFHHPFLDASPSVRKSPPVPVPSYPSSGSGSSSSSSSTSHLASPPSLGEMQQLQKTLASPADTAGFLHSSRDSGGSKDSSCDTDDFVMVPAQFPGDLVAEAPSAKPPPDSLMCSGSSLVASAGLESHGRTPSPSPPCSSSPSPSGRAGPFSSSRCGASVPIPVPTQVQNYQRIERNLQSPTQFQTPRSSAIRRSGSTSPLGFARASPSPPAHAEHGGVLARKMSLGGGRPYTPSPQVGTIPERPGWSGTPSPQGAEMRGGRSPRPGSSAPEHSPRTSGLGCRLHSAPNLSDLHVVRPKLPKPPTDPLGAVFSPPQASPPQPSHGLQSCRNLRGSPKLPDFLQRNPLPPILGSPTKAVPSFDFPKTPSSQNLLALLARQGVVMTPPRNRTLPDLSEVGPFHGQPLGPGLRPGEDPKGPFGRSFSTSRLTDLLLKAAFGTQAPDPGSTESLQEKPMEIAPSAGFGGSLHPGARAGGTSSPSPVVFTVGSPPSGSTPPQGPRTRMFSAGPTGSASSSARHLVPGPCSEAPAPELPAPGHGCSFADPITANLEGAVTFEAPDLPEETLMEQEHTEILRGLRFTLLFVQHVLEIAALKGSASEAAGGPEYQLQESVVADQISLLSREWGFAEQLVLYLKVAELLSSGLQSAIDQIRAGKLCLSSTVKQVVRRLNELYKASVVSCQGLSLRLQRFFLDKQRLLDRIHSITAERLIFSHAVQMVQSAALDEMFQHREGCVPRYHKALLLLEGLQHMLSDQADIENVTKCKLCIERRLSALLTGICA
Description: NanoBRET target engagement in live cells. The format is cell-based. Conditions: H2030 cells transfected with ULK1-nanoluc, Tracer K10, 2 hr. Background: BRET reads energy transfer from a luciferase to a nearby fluorophore.

The target in the next assay is T2, ULK1 kinase domain (Homo sapiens, UniProt O75385).
T2 construct: The protein expression construct of ULK1 kinase domain (1-283) was cloned; 6His-Sumo (N, cleaved yes); made in house; host or cells: E. coli BL21 star, co-expressed with lambda phosphatase
T2 sequence (O75385 1-283): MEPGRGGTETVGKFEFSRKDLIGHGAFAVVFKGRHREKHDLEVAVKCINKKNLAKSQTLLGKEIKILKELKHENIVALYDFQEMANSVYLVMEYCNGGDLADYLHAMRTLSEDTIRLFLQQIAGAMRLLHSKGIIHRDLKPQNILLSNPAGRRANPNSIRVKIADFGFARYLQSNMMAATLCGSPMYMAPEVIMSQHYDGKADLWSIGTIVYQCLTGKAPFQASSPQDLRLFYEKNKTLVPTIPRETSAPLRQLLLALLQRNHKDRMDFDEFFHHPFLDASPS
In words: Differential scanning fluorimetry (thermal shift). Conditions: 2 μM ULK1 kinase domain, 50 μM compound, vs DMSO reference. The format is binding. (In DSF a fluorescence change marks the thermal transition of the protein.)

Another assay concerns the target T3, GST-ULK1 (Homo sapiens, UniProt O75385).
T3 sequence (O75385 1-1050): T1 sequence (O75385 1-1050)
In words: LanthaScreen ULK1 inhibitor assay. The format is biochemical. Conditions: 5 nM GST-ULK1, 30 nM tracer, 20 μM ATP, 1 hr room temperature.

A further assay concerns the target T4, ULK1 kinase (Homo sapiens, UniProt O75385).
T4 construct: purchased Reaction Biology
T4 sequence (O75385 1-1050): T1 sequence (O75385 1-1050)
In words: Radiometric HotSpot kinase assay (Reaction Biology). The format is biochemical. As to conditions: activity-based ULK1 kinase assay.

Where only a bound is given, the exact number is not on record here.

Here are results for 22 compounds from patent US20250042895A1, “INHIBITORS OF ULK1 AND METHODS OF USE” (H. LEE MOFFITT CANCER CENTER AND RESEARCH INSTITUTE, INC., priority 2021, published 2025).

As to `O=C(NCC(F)(F)F)c1cc(-c2cnc3[nH]c(-c4ccc(OCCN5CCCCC5)cc4)cc3c2)cs1` [Compound 38, 4-(2-(4-(2-(Piperidin-1-yl)ethoxy)phenyl)-1H-pyrrolo[2,3-b]pyridin-5-yl)-N-(2,2,2-trifluoroethyl)thiophene-2-carboxamide], the EC50 at ULK1-nanoluc stood at 0.022 µM. Besides, on ULK1 kinase domain, the ΔTm at 50 µM amounted to 12.8 °C. The IC50 turned out to be 0.014 µM against GST-ULK1 and 15 nM against ULK1 kinase.
On the same counts, the results for `O=C(NC[C@H](O)CO)c1cccc(-c2cnc3[nH]c(-c4ccc(F)cc4)cc3c2)n1` [Compound 58, (S)—N-(2,3-Dihydroxypropyl)-6-(2-(4-fluorophenyl)-1H-pyrrolo[2,3-b]pyridin-5-yl)-picolinamide] are 2.37 µM, 9.22 °C, 0.067 µM and 22 nM.
Regarding `CC[C@@H](CO)NC(=O)c1cccc(-c2cnc3[nH]c(-c4ccc(F)cc4)cc3c2)n1` [Compound 59, (S)-6-(2-(4-Fluorophenyl)-1H-pyrrolo[2,3-b]pyridin-5-yl)-N-(1-hydroxybutan-2-yl)-picolinamide], the EC50 at ULK1-nanoluc is 0.149 µM. Besides, the ΔTm at 50 µM at ULK1 kinase domain stood at 11 °C. Moreover, the IC50 at GST-ULK1 was determined as 0.01 µM; at ULK1 kinase, 7 nM.
The like results for `CC[C@@H](CO)NC(=O)c1nc(-c2cnc3[nH]c(-c4ccc(F)cc4)cc3c2)cs1` [Compound 61, (S)-4-(2-(4-Fluorophenyl)-1H-pyrrolo[2,3-b]pyridin-5-yl)-N-(1-hydroxybutan-2-yl)-thiazole-2-carboxamide] were, in that order, 0.131 µM, 9.31 °C, 0.007 µM and 8 nM.
The like results for `O=C(NCC(O)C(F)(F)F)c1nc(-c2cnc3[nH]c(-c4ccc(F)cc4)cc3c2)cs1` (stereo not shown) [Compound 65, 4-(2-(4-Fluorophenyl)-1H-pyrrolo[2,3-b]pyridin-5-yl)-N-(3,3,3-trifluoro-2-hydroxy-propyl)thiazole-2-carboxamide] were, in that order, 0.122 µM, 7.12 °C, 0.017 µM and 29 nM.
At ULK1-nanoluc, `O=C(NCC1(O)CCC1)c1nc(-c2cnc3[nH]c(-c4ccc(F)cc4)cc3c2)cs1` [Compound 70, 4-(2-(4-fluorophenyl)-1H-pyrrolo[2,3-b]pyridin-5-yl)-N-((1-hydroxycyclobutyl)methyl)thiazole-2-carboxamide] showed an EC50 of 0.129 µM. The ΔTm at 50 µM on ULK1 kinase domain was determined as 8.04 °C. Moreover, the figures for the IC50 at GST-ULK1 and against ULK1 kinase were 0.008 µM and 22 nM, respectively.
The like results for `O=C(NCC1CC1)c1nc(-c2cnc3[nH]c(-c4ccc(F)cc4)cc3c2)cs1` [Compound 71, N-(cyclopropylmethyl)-4-(2-(4-fluorophenyl)-1H-pyrrolo[2,3-b]-pyridin-5-yl)thiazole-2-carboxamide] were, in that order, 0.414 µM, 3.73 °C, 0.039 µM and 14 nM.
With `O=C(NCC1(O)CC1)c1nc(-c2cnc3[nH]c(-c4ccc(F)cc4)cc3c2)cs1` [Compound 73, 4-(2-(4-fluorophenyl)-1H-pyrrolo-[2,3-b]pyridin-5-yl)-N-((1-hydroxy-cyclopropyl)methyl)thiazole-2-carboxamide], the concentration giving a half-maximal response (EC50) at ULK1-nanoluc turned out to be 0.195 µM. The ΔTm at 50 µM on ULK1 kinase domain was determined as 7.72 °C. In addition, the IC50 on GST-ULK1 stood at 0.003 µM; against ULK1 kinase, 10 nM.
`C[C@@H](CO)NC(=O)c1nc(-c2cnc3[nH]c(-c4ccc(F)cc4)cc3c2)cs1` [Compound 76, (S)-4-(2-(4-fluorophenyl)-1H-pyrrolo[2,3-b]pyridin-5-yl)-N-(1-hydroxypropan-2-yl)thiazole-2-carboxamide]: the response at ULK1-nanoluc was half-maximal at 0.541 µM (EC50). Besides, the ΔTm at 50 µM at ULK1 kinase domain was determined as 7.56 °C. The IC50 against GST-ULK1 stood at 0.025 µM; on ULK1 kinase it was 44 nM.
The like results for `O=C(NCCF)c1nc(-c2cnc3[nH]c(-c4ccc(F)cc4)cc3c2)cs1` [Compound 78, N-(2-fluoroethyl)-4-(2-(4-fluoro-phenyl)-1H-pyrrolo[2,3-b]pyridin-5-yl)thiazole-2-carboxamide] were, in that order, 0.282 µM, 4.83 °C, 0.027 µM and 20 nM.
The like results for `O=C(NCC(F)F)c1nc(-c2cnc3[nH]c(-c4ccc(F)cc4)cc3c2)cs1` [Compound 79, N-(2,2-difluoroethyl)-4-(2-(4-fluorophenyl)-1H-pyrrolo[2,3-b]-pyridin-5-yl)thiazole-2-carboxamide] were, in that order, 0.156 µM, 5.45 °C, 0.016 µM and 12 nM.
The like results for `FC(F)(F)c1cnc2[nH]c(C3=CCOCC3)cc2c1NCCN1CCNCC1` [Compound 87, 2-(3,6-dihydro-2H-pyran-4-yl)-N-(2-(piperazin-1-yl)ethyl)-5-(trifluoromethyl)-1H-pyrrolo[2,3-b]pyridin-4-amine] were, in that order, 0.076 µM, 12.5 °C, 0.016 µM and 10 nM.
As to `CN1CC=C(c2cc3c(NCCN4CCOCC4)c(C(F)(F)F)cnc3[nH]2)CC1` [Compound 99, 2-(1-methyl-1,2,3,6-tetrahydropyridin-4-yl)-N-(2-morpholinoethyl)-5-(trifluoromethyl)-1H-pyrrolo[2,3-b]pyridin-4-amine], the ΔTm at 50 µM on ULK1 kinase domain worked out at 7.77 °C. Further, the IC50 against GST-ULK1 was 0.374 µM; at ULK1 kinase, 625 nM.
The like results for `CN1CC=C(c2cc3c(N4CC(F)(F)C4)c(C(F)(F)F)cnc3[nH]2)CC1` [Compound 100, 4-(3,3-difluoroazetidin-1-yl)-2-(1-methyl-1,2,3,6-tetrahydropyridin-4-yl)-5-(trifluoromethyl)-1H-pyrrolo[2,3-b]pyridine] were, in that order, 4.99 °C, 0.218 µM and 171 nM.
`C[C@@H](CO)NC(=O)c1cc(-c2cnc3[nH]c(C4=CCCNC4)cc3c2)cs1` [Compound 102]: the EC50 on ULK1-nanoluc turned out to be 0.952 µM. Besides, at GST-ULK1, the midpoint of inhibition, the IC50, lay at 0.015 µM.
The compound `C[C@H](CO)NC(=O)c1cc(-c2cnc3[nH]c(C4=CCCNC4)cc3c2)cs1` [Compound 103] came in with an EC50 at ULK1-nanoluc of 1.4 µM. Inhibition at GST-ULK1 was half-maximal at 0.036 µM (IC50).
On the same counts, the results for `C[C@@H](CO)NC(=O)c1cc(-c2cnc3[nH]c(C4=CCNC4)cc3c2)cs1` [Compound 104] are 4.29 µM and 0.029 µM.
Consider `C[C@H](CO)NC(=O)c1cc(-c2cnc3[nH]c(C4=CCNC4)cc3c2)cs1` [Compound 105], for which the EC50 on ULK1-nanoluc is at least 10 µM. The same compound yielded an IC50 at GST-ULK1 of 0.139 µM.
`C[C@@H](CO)NC(=O)c1cc(-c2cnc3[nH]c(C4=CCNCC4)cc3c2)cs1` [Compound 106] gave an EC50 on ULK1-nanoluc of 1.13 µM. The compound also registered an IC50 on GST-ULK1 of 0.016 µM.
The like results for `C[C@@H](CO)NC(=O)c1cc(-c2cnc3[nH]c(C4=CCN(C)CC4)cc3c2)cs1` [Compound 107] were, in that order, 0.391 µM and 0.019 µM.
The like results for `O=C(NCC1(O)CC1)c1cc(-c2cnc3[nH]c(C4=CNCCC4)cc3c2)cs1` [Compound 108] were, in that order, 0.219 µM and 0.026 µM.
On the same counts, the results for `FC1(F)CN(c2c(C(F)(F)F)cnc3[nH]c(C4=CCNC4)cc23)C1` [Compound 140] are 0.086 µM and 0.001 µM.

As usually defined, the EC50 is the concentration that produces a half-maximal response. Low readings indicate a more potent agent, high ones a less potent agent. One may read the ΔTm as the shift of the melting midpoint relative to a reference. In general, IC50 refers to the point on the concentration scale where inhibition reaches its midpoint. Low values mean greater potency in that assay, high ones weaker potency in that assay.
